Reference: US20230021329A1, “NANOSTRUCTURED BINARY GEL COMPOSITION AND USE THEREOF” (Veri Nano Inc., priority 2019, published 2023)

Assay: Release study of agents from the gel
Assay type: physicochemical
[1] = release from hydrogel composition #4, 10 h in PBS

Procedure: 25 ml of PBS was added to each of the beakers. The beakers were put on a plate shaker (Delfia 1296-004) and shaken at the “low” setting for 10 h. The liquid was centrifuged at 21130 rcf for 10 min, and the supernatants were taken for analysis.
BSA Protein release from the nanoparticles was quantified via nanodrop spectrophotometer to determine the concentration of protein in the supernatant, after creating a nanoparticle pellet on centrifugation, all these after 10 hours of incubation in PBS at room temperature.
The concentration released of the Rhodamine B was determined by talking the supernatant after 10 h, centrifuged and diluted the solution by 10×. Subsequently, the absorbance was measured by using a plate reader (Varioskan Lux) and compared to a calibration curve.

## CCN(CC)c1ccc2c(-c3ccccc3C(=O)O)c3ccc(=[N+](CC)CC)cc-3oc2c1.[Cl-] [Rhodamine B]
[1]
  amount released: 6.3 mg
  percent release: 5.7%
Release from hydrogel composition #4, supernatant after 10 h, absorbance vs calibration curve
  concentration in supernatant: 252 μ/ml
